Paper PMC7136958, “Targeting the pregnane X receptor using microbial metabolite mimicry” (EMBO Molecular Medicine, 2020)
“And” between values parts separate entries of the source, which are not always exact repeats. Equal values may be shown once.

How the values were obtained:
NF-κB = experiment: TNF-α-induced NF-κB reporter assay in LS180 cells with or without PXR co-transfection; assay type: cell-based, human; settings: for TNF-α-induced NF-κB reporter activity: 0.1 to 25 μM, PXR-untransfected and PXR-transfected cells
Procedure: NF‐κB reporter assays were performed using LS180 cells. […] Thereafter, cells were lysed, and Nano luciferase activity was measured using a Tecan Infinite M200 Pro plate reader (Schoeller Instruments, Czech Republic).

PPARγ = biological target: T1, PPARγ (Homo sapiens, UniProt P37231); experiment: PPARγ reporter assay in PAZ-PPARg cells; assay type: cell-based
T1 construct: endogenous in cells; host or cells: PAZ-PPARg
Procedure: volume of 20 µl in 384-well black plates, with concentrations of tested compounds in the range from 1 […]
dark, and then fluorescent signals were measured at 495 nm and 520 nm, with the excitation filter 340 nm, on Infinite F200 microplate reader (Tecan Group Ltd, Switzerland). Finally, the TR-FRET ratio was calculated by dividing the emission signal of 520 nm by that at 495 nm. All experiments were done in tetraplicates and as two independent experiments. Final EC50 values were obtained by processing the data with GraphPad Prism 6 using standard curve interpolation (sigmoidal, 4PL, variable slope).
Tr a nscriptional activity of PPARγ was studied in stably transfected reporter cell line PAZ-PPARg 20. Cells were seeded in 96 -well plates, stabilized for 24 h, and then incubated with tested compound. Dimethyl sulfoxide (DMSO; 0.1% v/v) and 15 -deoxy-δ1 2 , 1 4-prostaglandin J2 […]
(Schoeller Instruments, Prague, Czech Republic). The data are expressed as fold induction ± SD of luciferase activity over the control cells. Differences were tested using one-way ANOVA wit h Dunnett’s post hoc test, p < 0.05, was considered significant (*).

[1] = tested on: PXR occupancy of CYP3A4 and MDR1 promoter; experiment: Chromatin immunoprecipitation (ChIP) in PXR-transfected LS174T cells; settings: 10 μM
Procedure: LS174T cells were transfected with pSG5‐PXR (2 μg/plate/1 × 10^7 cells). […] Briefly, cells were chemically cross‐linked with formaldehyde in culture media for 15 min at room temperature. […] Cells were rinsed twice with cold PBS (phosphate‐buffered saline) (pH 7.5) and scraped in PBS supplemented with PIC (protease inhibitor cocktail).
Cell pellets were collected and immediately resuspended in immunoprecipitation (IP) buffer (150 mM NaCl (sodium chloride), 50 mM Tris–HCl at pH 7.5, 5 mM EDTA (ethylenediaminetetraacetic acid), 0.5% NP‐40, 1% Triton X‐100). The nuclei were centrifuged at 12,000 × g for 1 min and resuspended in fresh IP buffer. Chromatin was sheared by sonication to an average size of 0.2‐0.9 kb. Lysates were cleared by centrifugation at 12,000 × g for 10 min. […] 10% (wt/vol) Chelex 100 was added to the beads followed by boiling of the suspension and centrifugation at 12,000 × g for 1 min to obtain chromatin.
Purified chromatin DNA was used to perform RT–qPCR. […] Data were analyzed using SDS 2.2.1 program (ABI Biotechnology).

FXR = biological target: T2, FXR (Homo sapiens, UniProt Q96RI1); experiment: hFXR TR-FRET (LanthaScreen FXR Coactivator Assay); assay type: biochemical; settings: 1 nM to 25 µM
T2 construct: purchased Invitrogen PV4833

[2] = tested on: IL-8 mRNA in Caco-2 cells; experiment: IL-8 mRNA in Caco-2 monolayers exposed to cytokine cocktail; assay type: cell-based, human; design: key to IL8 mRNA: relative IL-8 mRNA level, normalized to GAPDH; settings: for IL8 mRNA: Caco-2 cells, triplicate
Procedure: Caco‐2 cell (ATCC, Manassas, VA) passages 25–35 were maintained and expanded in culture flasks in Dulbecco's modified Eagle's medium (DMEM) with 10% FBS and 1× antibiotic–antimycotic. The cells were kept in a humidified 37°C incubator with 5% CO2. Media were changed every 2–3 days, and cells were passaged 1–2 times a week. For all experiments, Caco‐2 cells (5 × 10^4 cells/ml) were seeded into 12‐well Transwell inserts or coverslips and cultured for 3 weeks. HIOs were generated from iPSCs as described previously (Spence et al, 2011), with some modifications. The iPSC cell line IISH1i‐BM1 (WiCell, Madison, WI) was cultured on Matrigel plates to 80% confluence in mTeSR™ 1 medium (Stem Cell Technologies, Seattle, WA) and differentiated to endoderm using Definitive Endoderm Kit (Stem Cell Technologies., Seattle, WA) for 4 days with daily media changes. Endoderm was then differentiated to hindgut for 5 days with the addition of FGF‐4 (500 ng/ml; Peprotech, Rocky Hill, NJ) and Chir99021 (3 μM; Cayman, Ann Arbor, MI) in RPMI media supplemented with 2% FBS. Floating hindgut spheroids were collected on days 3–5 of hindgut differentiation and suspended in Matrigel beads for HIO differentiation. HIOs were maintained in WENRAS media (Fujii et al, 2015), which maintains proliferation in the culture. Stock HIOs were passaged weekly by removing Matrigel with Cell Recovery Solution (Corning, NY) and mechanically breaking up organoids with pipetting. HIOs were seeded into new Matrigel beads at a 1:3 split, using WENRAS with added Rock Inhibitor Y‐27632 (10 μM) and Chir99021 (3 μM; Cayman., Ann Arbor, MI) for the first 2 days of culture.
Relative mRNA levels of IL‐8 and IL‐6 were determined using quantitative real‐time PCR, with normalization to GAPDH. RNA was isolated using an RNeasy Mini Kit (Qiagen) as per the manufacturer's instructions. On column DNase (Qiagen) was used to remove any contaminating DNA. Next, cDNA was formed using iScript cDNA Synthesis Kit (Bio‐Rad) and 100 ng RNA. qRT–PCR was performed with SsoAdvanced Universal SYBR Green Kit (Bio‐Rad). The following primers were used: IL‐8 Forward: […]; IL‐8 Reverse: […]; IL‐6 Forward: […]; IL‐6 Reverse: […]; GAPDH Forward: […]; GAPDH Reverse: […]. For immunofluorescent staining of NF‐ĸB translocation to the cell nucleus, HIOs and Caco‐2 cell monolayers were fixed in 4% formaldehyde (in 1 × PBS) overnight at 4°C. The formaldehyde was removed by washing with 1 × PBS, and an antigen retrieval step was performed by incubating in 10 mM sodium citrate buffer in a vegetable steamer for 20 min. The samples were then blocked with normal donkey serum (10% in PBS with 0.3% Triton X‐100) for 1 h. Samples were incubated overnight with primary antibodies: rabbit anti‐NF‐κB p65 (D14E12 # 8242, 1:400 dilution, Cell Signaling Technology, Danvers MA), then immersed in Alexa Fluor® 555 donkey anti‐rabbit secondary antibody (A‐31572, Life Technologies) at a 1:500 dilution. Nuclei were stained with Hoechst 33342 (Life Technologies). The samples were then imaged using a Zeiss LSM880 Confocal/Multiphoton Upright Microscope, with 3‐D image rendering using Volocity. For controls, normal rabbit IgG (#2729S, Life Technologies) was used.

[3] = NFkB transfected LS180 cells, 8th pass, EXP1, 0,1 uM + TNFa 5 ng/ml
[4] = NFkB transfected LS180 cells, 8th pass, EXP1, 1 uM + TNFa 5 ng/ml
[5] = NFkB transfected LS180 cells, 8th pass, EXP1, 10 uM + TNFa 5 ng/ml
[6] = NFkB transfected LS180 cells, 8th pass, EXP1, 25 uM + TNFa 5 ng/ml
[7] = NFkB transfected LS180 cells, 13th pass, EXP2, 0,1 uM + TNFa 5 ng/ml
[8] = NFkB transfected LS180 cells, 13th pass, EXP2, 1 uM + TNFa 5 ng/ml
[9] = NFkB transfected LS180 cells, 13th pass, EXP2, 10 uM + TNFa 5 ng/ml
[10] = NFkB transfected LS180 cells, 13th pass, EXP2, 25 uM + TNFa 5 ng/ml
[11] = NFkB+PXR transfected LS180 cells, 8th pass, EXP1, 0,1 uM + TNFa 5 ng/ml
[12] = NFkB+PXR transfected LS180 cells, 8th pass, EXP1, 1 uM + TNFa 5 ng/ml
[13] = NFkB+PXR transfected LS180 cells, 8th pass, EXP1, 10 uM + TNFa 5 ng/ml
[14] = NFkB+PXR transfected LS180 cells, 8th pass, EXP1, 25 uM + TNFa 5 ng/ml
[15] = NFkB+PXR transfected LS180 cells, 13th pass, EXP2, 0,1 uM + TNFa 5 ng/ml
[16] = NFkB+PXR transfected LS180 cells, 13th pass, EXP2, 1 uM + TNFa 5 ng/ml
[17] = NFkB+PXR transfected LS180 cells, 13th pass, EXP2, 10 uM + TNFa 5 ng/ml
[18] = NFkB+PXR transfected LS180 cells, 13th pass, EXP2, 25 uM + TNFa 5 ng/ml
[19] = compound 25µm, no cytokines, 2 hr
[20] = cytokines + compound 10µm, 2 hr

T2 sequence (Q96RI1 211-486 limits assumed): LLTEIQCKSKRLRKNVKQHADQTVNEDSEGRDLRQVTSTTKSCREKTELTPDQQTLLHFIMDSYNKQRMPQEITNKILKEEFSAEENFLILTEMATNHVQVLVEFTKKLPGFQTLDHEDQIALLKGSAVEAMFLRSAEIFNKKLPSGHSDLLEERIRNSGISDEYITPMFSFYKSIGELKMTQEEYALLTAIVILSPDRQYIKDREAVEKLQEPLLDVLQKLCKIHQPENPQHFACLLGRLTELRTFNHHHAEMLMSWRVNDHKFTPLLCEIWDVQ
T1 sequence (P37231 whole entry): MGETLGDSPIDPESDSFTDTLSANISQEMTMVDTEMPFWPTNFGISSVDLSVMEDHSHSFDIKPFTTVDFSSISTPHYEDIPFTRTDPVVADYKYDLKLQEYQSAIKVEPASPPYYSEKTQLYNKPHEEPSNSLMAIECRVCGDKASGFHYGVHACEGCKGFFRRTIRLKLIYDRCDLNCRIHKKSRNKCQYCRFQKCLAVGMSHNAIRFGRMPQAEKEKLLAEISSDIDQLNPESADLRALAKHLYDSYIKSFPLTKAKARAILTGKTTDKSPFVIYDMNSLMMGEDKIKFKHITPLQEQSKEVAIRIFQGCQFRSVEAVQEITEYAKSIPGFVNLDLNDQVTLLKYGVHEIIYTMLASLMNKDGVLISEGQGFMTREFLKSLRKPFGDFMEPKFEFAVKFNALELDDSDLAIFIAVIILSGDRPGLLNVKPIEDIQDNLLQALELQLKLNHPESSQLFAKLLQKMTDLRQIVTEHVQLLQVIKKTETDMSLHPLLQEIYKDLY

SMILES: O=C(c1ccncc1)c1cc2ccccc2n1S(=O)(=O)c1ccccc1 [FKK5, (1-(phenylsulfonyl)-1H-indol-2-yl)(pyridin-4-yl)methanone]
- TNF-α-induced NF-κB reporter activity (NF-κB): significantly reduced
- NFkB reporter luminescence, aver (NF-κB; [3]): 154648.3
- NFkB reporter, % max (NF-κB; [3]): 100.0%
- NFkB reporter luminescence, aver (NF-κB; [4]): 174112.0
- NFkB reporter, % max (NF-κB; [4]): 112.6%
- NFkB reporter luminescence, aver (NF-κB; [5]): 177548.0
- NFkB reporter, % max (NF-κB; [5]): 114.8%
- NFkB reporter luminescence, aver (NF-κB; [6]): 128563.8
- NFkB reporter, % max (NF-κB; [6]): 83.1%
- NFkB reporter luminescence, aver (NF-κB; [7]): 96416.5
- NFkB reporter, % max (NF-κB; [7]): 100.0%
- NFkB reporter luminescence, aver (NF-κB; [8]): 100061.8
- NFkB reporter, % max (NF-κB; [8]): 103.8%
- NFkB reporter luminescence, aver (NF-κB; [9]): 94755.5
- NFkB reporter, % max (NF-κB; [9]): 98.3%
- NFkB reporter luminescence, aver (NF-κB; [10]): 73575.7
- NFkB reporter, % max (NF-κB; [10]): 76.3%
- NFkB reporter luminescence, aver (NF-κB; [11]): 119827.8
- NFkB reporter, % max (NF-κB; [11]): 100.0%
- NFkB reporter luminescence, aver (NF-κB; [12]): 119180.5
- NFkB reporter, % max (NF-κB; [12]): 99.5%
- NFkB reporter luminescence, aver (NF-κB; [13]): 105570.7
- NFkB reporter, % max (NF-κB; [13]): 88.1%
- NFkB reporter luminescence, aver (NF-κB; [14]): 87454.8
- NFkB reporter, % max (NF-κB; [14]): 73.0%
- NFkB reporter luminescence, aver (NF-κB; [15]): 54048.0
- NFkB reporter, % max (NF-κB; [15]): 100.0%
- NFkB reporter luminescence, aver (NF-κB; [16]): 44601.5
- NFkB reporter, % max (NF-κB; [16]): 82.5%
- NFkB reporter luminescence, aver (NF-κB; [17]): 31230.0
- NFkB reporter, % max (NF-κB; [17]): 57.8%
- NFkB reporter luminescence, aver (NF-κB; [18]): 30160.0
- NFkB reporter, % max (NF-κB; [18]): 55.8%
- PPARγ ligand agonist activity (PPARγ): did not observe any significant ligand agonist activity
- MDR1 Fold Expression (2-ΔΔCt) ([1]; relative to DMSO = 1, each column a repeat experiment (Fig 1d)): 3.894 and 3.803 and 2.576 and 4.071
- FXR ligand agonist activity (FXR): did not observe any significant ligand agonist activity
- IL8 mRNA [2, 19]: 11.5603 and 13.1808 and 10.1297
- IL8 mRNA [2, 20]: 168.69 and 99.441 and 183.41
- IL8 mRNA ([2]; cytokines + compound 25µm, 2 hr): 36.3596 and 45.4346 and 54.4045
- IL8 mRNA ([2]; cytokines + compound 25µm, 12 hr): 434.784 and 305.562 and 246.223

SMILES: C#CCC(O)(c1ccncc1)c1cc2ccccc2n1S(=O)(=O)c1ccccc1 (stereo not shown) [FKK6]
- TNF-α-induced NF-κB reporter activity (NF-κB): significantly reduced
- NFkB reporter luminescence, aver (NF-κB; [3]): 151491.7
- NFkB reporter, % max (NF-κB; [3]): 100.0%
- NFkB reporter luminescence, aver (NF-κB; [4]): 188054.3
- NFkB reporter, % max (NF-κB; [4]): 124.1%
- NFkB reporter luminescence, aver (NF-κB; [5]): 206680.7
- NFkB reporter, % max (NF-κB; [5]): 136.4%
- NFkB reporter luminescence, aver (NF-κB; [6]): 153657.3
- NFkB reporter, % max (NF-κB; [6]): 101.4%
- NFkB reporter luminescence, aver (NF-κB; [7]): 110498.5
- NFkB reporter, % max (NF-κB; [7]): 100.0%
- NFkB reporter luminescence, aver (NF-κB; [8]): 114693.5
- NFkB reporter, % max (NF-κB; [8]): 103.8%
- NFkB reporter luminescence, aver (NF-κB; [9]): 113662.5
- NFkB reporter, % max (NF-κB; [9]): 102.9%
- NFkB reporter luminescence, aver (NF-κB; [10]): 88975.5
- NFkB reporter, % max (NF-κB; [10]): 80.5%
- NFkB reporter luminescence, aver (NF-κB; [11]): 128584.0
- NFkB reporter, % max (NF-κB; [11]): 100.0%
- NFkB reporter luminescence, aver (NF-κB; [12]): 112418.0
- NFkB reporter, % max (NF-κB; [12]): 87.4%
- NFkB reporter luminescence, aver (NF-κB; [13]): 100484.8
- NFkB reporter, % max (NF-κB; [13]): 78.1%
- NFkB reporter luminescence, aver (NF-κB; [14]): 94342.8
- NFkB reporter, % max (NF-κB; [14]): 73.4%
- NFkB reporter luminescence, aver (NF-κB; [15]): 50028.3
- NFkB reporter, % max (NF-κB; [15]): 100.0%
- NFkB reporter luminescence, aver (NF-κB; [16]): 38521.5
- NFkB reporter, % max (NF-κB; [16]): 77.0%
- NFkB reporter luminescence, aver (NF-κB; [17]): 24979.3
- NFkB reporter, % max (NF-κB; [17]): 49.9%
- NFkB reporter luminescence, aver (NF-κB; [18]): 26644.5
- NFkB reporter, % max (NF-κB; [18]): 53.3%
- PPARγ ligand agonist activity (PPARγ): did not observe any significant ligand agonist activity
- PXR occupancy of proximal CYP3A4 and MDR1 promoter (semi-quantitative ChIP) [1]: augmented PXR occupancy
- FXR ligand agonist activity (FXR): did not observe any significant ligand agonist activity
- cytokine-induced IL-8 mRNA ([2]; 25 μM): significantly reduced
- IL8 mRNA ([2]; compound 10µm, no cytokines, 2 hr): 2.554 and 1.974 and 1.5894
- IL8 mRNA ([2]; compound 10µm, no cytokines, 12 hr): 7.6 and 8.533 and 8.223
- IL8 mRNA [2, 19]: 55.8723 and 30.5592 and 31.4544
- IL8 mRNA [2, 20]: 40.0864 and 49.4401 and 49.4954
- IL8 mRNA ([2]; cytokines + compound 10µm, 12 hr): 83.1628 and 71.3481 and 97.9287
